# Data taken from patent publication US9629848B2, “Compounds that modulate autoimmunity and methods of using the same” (The Regents of the University of Colorado, a body corporate, priority 2011, dated 2017).
# Assays:
# [1] = target: T1, I-A^b complexed to a 3K peptide (Mus musculus, UniProt P14434+P14483); test: Tetramer staining, I-A^b complexed to a 3K peptide; type: cell-based; conditions: specificity control
# T1 sequence (P14434 24-218 limits assumed): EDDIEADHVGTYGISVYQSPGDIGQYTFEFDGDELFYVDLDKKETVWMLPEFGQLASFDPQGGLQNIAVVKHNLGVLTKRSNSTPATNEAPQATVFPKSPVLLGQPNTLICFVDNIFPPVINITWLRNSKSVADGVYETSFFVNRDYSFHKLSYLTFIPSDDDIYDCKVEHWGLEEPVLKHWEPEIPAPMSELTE
# T1 sequence (P14483 28-226 limits assumed): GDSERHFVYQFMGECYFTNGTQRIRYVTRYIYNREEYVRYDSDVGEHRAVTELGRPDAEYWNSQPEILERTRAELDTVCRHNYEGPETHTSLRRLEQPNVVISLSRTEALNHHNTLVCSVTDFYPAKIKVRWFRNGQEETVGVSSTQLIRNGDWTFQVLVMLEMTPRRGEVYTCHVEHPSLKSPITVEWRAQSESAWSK
# [2] = system: DQ8 restricted T cell receptor (TCR) transfectomas; test: Ex vivo biomarker assay in DQ8 humanized mice, duration and oral route
# [3] = system: Anti-CD3 stimulation; test: Anti-CD3 stimulation control in ex vivo biomarker assay; parameters: species or system DQ8 humanized mice; conditions: mouse
# Procedure: The IL-2 response from the TCR transfectomas using splenocytes harvested within 2 hours from TATD treated mice was abrogated compared to PBS treated controls (FIGS. 13A and 13B). Anti-CD3 stimulation was not inhibited in the presence of TATD.
# [4] = system: NOD mice; test: Insulin autoantibody production and diabetes onset in NOD mice; type: in vivo, mouse; conditions: 20 mg/kg IP daily from 4 to 12 weeks of age
# Procedure: To test the efficacy of this molecule in vivo, Jackson NOD mice were treated with TATD at a dose of 20 mg/kg IP daily starting at 4 weeks of age. Treatment ceased at 12 weeks of age. Insulin autoantibody (IAA) was measured before treatment at 8, 10, 12, 16, 20, and 24 weeks of age.
# [5] = system: clone 5 TCR transfectomas, insulin B:13-23 antigen; test: Ex vivo biomarker assay in DQ8 humanized mice, clone 5 TCR transfectomas with insulin B:13-23
# Procedure: (§1) TATD was further evaluated in humanized DQ8 mice. These mice are on a NOD background, I-A null, and contain transgenes for DQ8 and human CD4 (NOD, I-A^g^7 null, DQ8 transgene, Rag KO). TATD was used to develop a rapid ex vivo biomarker assay to monitor the effects of small molecules on antigen presentation in DQ8 humanized mice. To identify a biomarker, mice were treated in vivo with TATD (either by intraperitoneal injection or gastric gavage) and isolated splenocytes or peripheral blood mononuclear cells (PBMCs) were used to monitor antigen presentation to DQ8 restricted T cell receptor (TCR) transfectomas.
# (§2) Using this biomarker assay, DQ8 humanized mice were treated with a single intraperitoneal dose of TATD (20 mg/kg) and then sacrificed 2 hours later. Splenocytes from treated mice were cultured with the insulin B:13-23 antigen in the presence of clone 5 TCR transfectomas, or deamidated α-gliadin in the presence of the 489 TCR transfectoma. No TATD was added in vitro to the stimulation assays. Control mice received IP injections of PBS (the vehicle in which TATD is dissolved).
# [6] = system: 5KC cells transduced with a 4-8 TCR; test: Endogenous insulin presentation: whole insulin with I-A^g^7 splenocytes and 4-8 TCR transduced 5KC cells; type: cell-based, mouse
# Procedure: (§3) The ability of the small molecules to block endogenous insulin presentation was tested. Incubation of whole insulin with I-A^g^7 containing splenocytes activates 5KC cells (T cell hybridoma lacking endogenous TCRα and β chains) transduced with a 4-8 TCR. […] To document direct effects of these small molecules on inhibiting peptide binding to I-A^g^7, an I-A^g^7 protein construct was expressed in baculovirus with a linked peptide. The flexible linker contained a thrombin cleavage site, allowing for thrombin cleavage of the linker and release of the peptide.
# [7] = system: 489 TCR transfectoma, deamidated α-gliadin; test: Ex vivo biomarker assay in DQ8 humanized mice, 489 TCR transfectoma with deamidated α-gliadin; conditions: pooled PBMCs from treated mice
# Procedure: as §1, §2
# [8] = system: human T cell receptor recognizing insulin B:9-23 presented by human DQ8; test: Inhibition of human T cell receptor recognizing insulin B:9-23 presented by human DQ8; type: cell-based
# Text: Using a TCR sequence obtained from a T cell line generated from the peripheral blood of a diabetic individual with DQ8 molecule, a TCR was identified that is DQ8 restricted and responds to the insulin B:9-23 peptide.
# Molecules predicted to occupy pockets 1 and 9 of the human DQ8 peptide binding groove were identified using in silico molecular docking program. The top scoring compounds for each pocket were screened for their ability to inhibit anti-B:9-23 T cell responses. FIGS. 9A and 9B represent the results of the T cell stimulation assay for compounds occupying pocket 1 and pocket 9 of the human DQ8 peptide binding groove, respectively.
# [9] = system: T cell response to the autoantigen, amino acids 9-23 in the B chain of insulin; test: Inhibition of T cell response to insulin B chain amino acids 9-23; type: cell-based, mouse
# Text: (§4) This molecule inhibited the insulin presentation to T cells capable of causing diabetes in mice and T cells responding to insulin in humans. […] Specificity was shown by using the molecule to inhibit tetramer binding (I-A^g^7 complexed to insulin peptides) to T cells.
# [10] = system: I-A^g^7; test: Soluble binding assay, B:9-23 peptide to empty I-A^g^7; parameters: species or system mouse; conditions: dose dependent
# [11] = system: I-A^g^7 complexed to insulin peptides; test: Tetramer staining, I-A^g^7 complexed to insulin peptides; type: cell-based, mouse
# Text: as §4
# [12] = system: isolated whole islets from an adult non-diabetic NOD mouse; test: TCR response to isolated whole islets; type: cell-based; conditions: islets containing beta cells
# Procedure: as §3
# [13] = target: DQ8 (Homo sapiens, UniProt P01909+P01920, A209T/A45G/C70Q/D89A/DUP78-78/E183D/E77G/F237L/G63E/H199R/I129T/K197E/L178F/L74F/L98V/Q57E/Q76R/S185I/S97I/T217I/T49S/V73L/Y58L); test: Competitive binding assay B:9-23 to DQ8
compound,measurement,setting,value
"C1CN2CN3CCN(CN1C3)C2 [TATD, 1,3,6,8-tetraazatricyclo (4.4.1.1(3,8)) dodecane]",T cell staining with I-A^b / 3K peptide tetramer,[1],did not alter T cell staining
same,Blocking IL-2 production from the TCR transfectomas,[2]; gastric gavage,effective at blocking IL-2 production
same,Oral absorption,[2]; gastric gavage,orally absorbed
same,Duration of effects on antigen presentation,[2]; single dose,7 days
same,Anti-CD3 stimulation,[3],not inhibited
same,Diabetes onset,[4],prevents diabetes onset
same,Insulin autoantibody (IAA) formation,[4]; IAA up to 24 weeks,blocks IAA formation
same,Clone 5 response to insulin B:13-23 presented by PBMCs,[5]; pooled PBMCs from treated mice,blocked
same,"IL-2 response of clone 5 TCR transfectomas, splenocytes","[5]; single 20 mg/kg IP dose, splenocytes harvested within 2 hours, vs PBS controls",abrogated
same,Inhibition of endogenous antigen presentation of whole insulin by antigen presenting cells,[6],able to inhibit endogenous antigen presentation
same,489 TCR transfectoma response to deamidated α-gliadin presented by PBMCs,[7],the same response is seen
same,Concentration inhibiting antigen presentation by human DQ8 to T cells involved in type 1 diabetes,[8],low nanomolar
same,Concentration inhibiting T cell response to insulin B:9-23,[9],low nanomolar
same,Inhibition of B:9-23 peptide binding to I-A^g^7,[10],block peptide binding
same,Tetramer staining of T cells recognizing insulin B:9-23 presented by I-A^g^7,[11],inhibited tetramer staining
same,Inhibition of TCR response to whole islets,[12],able to inhibit endogenous antigen presentation
same,Block of peptide binding to DQ8,[13],block peptide binding
same,IC50,[13],4.5 pM
